For nine compounds, IC50 results are on record in patent US20230091225A1, “Bifunctional chimeric heterocyclic compounds for targeted degradation of androgen receptors and use thereof” (HINOVA PHARMACEUTICALS INC., priority 2019, published 2023).

The first assay deals with LNCaP/AR cells. The assay is described as follows: Inhibition of proliferation of LNCaP/AR prostate cancer cells (CCK-8). Format: cell-based. The conditions noted are these: 144 h; proliferation of LNCap/AR cells, 6 days, CCK-8; read-out: IC50.
For the compound `CC1(C)[C@H](Oc2ccc(C#N)c(Cl)c2)C(C)(C)[C@H]1N1Cc2cc(C#CC3CCN(C4CN(c5ccc6c(c5)C(=O)N(C5CCC(=O)NC5=O)C6=O)C4)CC3)ccc2C1=O` (stereo partly drawn) [Compound 53, 2-chloro-4-((1r,3r)-3-(5-((1-(I-(2-(2,6-dioxopiperidin-3-yl)-1,3-dioxoisoindolin-5-yl)azelaic acid-3-yl)piperidin-4-yl)ethynyl)-1-oxoisoindolin-2-yl)-2,2,4,4-tetramethylcyclobutoxy)benzonitrile], the IC50 lay within 100 to 500 nM.

Turning to `[2H]C([2H])([2H])N(C(=O)c1ccc(N2CCC(CN3CCN(c4cc5c(cc4F)C(=O)N(C4CCC(=O)NC4=O)C5)CC3)CC2)nc1)[C@H]1CC[C@H](Oc2ccc(C#N)c(Cl)c2)CC1` (stereo partly drawn) [Compound 305, N-((1r,4r)-4-(3-chloro-4-cyanophenoxy)cyclohexyl)-6-(4-((4-(2-(2,6-dioxopiperidin-3-yl)-6-fluoro-1-oxoisoindol-5-yl)piperazin-1-yl)methyl)piperidin-1-yl)-N-deuteromethylnicotinamide], the half-inhibitory concentration (IC50) is 500 to 1000 nM.

Regarding `[2H]C([2H])([2H])N(C(=O)c1ccc(N2CCC(CN3CCN(c4cc5c(cc4F)CN(C4CCC(=O)NC4=O)C5=O)CC3)CC2)nc1)[C@H]1CC[C@H](Oc2ccc(C#N)c(Cl)c2)CC1` (stereo partly drawn) [Compound 306, N-((1r,4r)-4-(3-chloro-4-cyanophenoxy)cyclohexyl)-6-(4-((4-(2-(2,6-dioxopiperidin-3-yl)-6-fluoro-3-oxoisoindol-5-yl)piperazin-1-yl)methyl)piperidin-1-yl)-N-deuteromethylnicotinamide], the IC50 is above 1000 nM.

With `N#Cc1ccc(O[C@H]2CC[C@H](N3Cc4cc(N5CCC(CN6CCN(c7ccc8c(c7)CN(C7CCC(=O)NC7=O)C8=O)CC6)CC5)ncc4C3=O)CC2)cc1Cl` (stereo partly drawn) [Compound 312], the IC50 was 100 to 500 nM.

Turning to `N#Cc1ccc(O[C@H]2CC[C@H](N3Cc4cc(N5CCC(CN6CCN(c7cc8c(cc7F)C(=O)N(C7CCC(=O)NC7=O)C8)CC6)CC5)ncc4C3=O)CC2)cc1Cl` (stereo partly drawn) [Compound 313], the IC50 is below 100 nM.

Still in this assay, the particulars now being: LNCaP/AR, 144 h.
In turn, `N#Cc1ccc(O[C@H]2CC[C@H](N3Cc4cc(N5CCC(CN6CCN(c7cc8c(cc7F)C(=O)N(C7CCC(=O)NC7=O)C8=O)CC6)CC5)ncc4C3=O)CC2)cc1Cl` (stereo partly drawn) [Compound 311] returned an IC50 above 1000 nM.

The assay is the same for the next values; noted with them: proliferation of LNCap/AR cells, 6 days, CCK-8; read-out: IC50.
Regarding `CC1(C)C(Oc2ccc(C#N)c(Cl)c2)C(C)(C)C1N1Cc2nc(N3CCC(CN4CCN(c5ccc6c(c5)C(=O)N([C@@H]5CCC(=O)NC5=O)C6=O)CC4)CC3)ccc2C1=O` (stereo partly drawn) [Compound 202, 2-chloro-4-((1r,3r)-3-(2-(4-((4-(2,6-dioxopiperidin-3-yl-1,3-dioxoisoindolin-5-yl)piperazin-1-yl)methyl)piperidin-1-yl)-5-oxo-5,7-dihydro-6H-pyrrolo[3,4-b]pyridin-6-yl)-2,2,4,4-tetramethylcyclobutoxy)benzonitrile], the half-inhibitory concentration (IC50) fell in the range of 100 to 500 nM.

With `CN1C(=O)CCC(N2Cc3cc(F)c(N4CCN(CC5CCN(c6ccc7c(n6)CN(C6CCC(Oc8ccc(C#N)c(Cl)c8)CC6)C7=O)CC5)CC4)cc3C2=O)C1=O` (stereo not drawn) [Compound 307, 2-chloro-4-((1r,4r)-4-(2-(4-((4-(6-fluoro-2-(1-methyl-2,6-dioxopiperidin-3-yl)-3-oxoisoindolin-5-yl)piperazin-1-yl)methyl)piperidin-1-yl)-5-oxo-5H-pyrrolo[3,4-b]pyridin-6(7H)-yl)cyclohexyl)oxy)benzonitrile], the IC50 was in the range of 500 to 1000 nM.

Regarding `CC1(C)[C@H](Oc2ccc(C#N)c(Cl)c2)C(C)(C)[C@H]1N1Cc2cc(C#Cc3cnn(C4CN(c5cc6c(cc5F)C(=O)N(C5CCC(=O)NC5=O)C6=O)C4)c3)ccc2C1=O` (stereo partly drawn) [Compound 310, 2-chloro-4-((1r,3r)-3-(5-((1-(1-(2-(2,6-dioxopiperidin-3-yl)-6-fluoro-1,3-dioxoisoindolin-5-yl)azetidine-3-yl)-1H-pyrazol-4-yl)ethynyl)-1-oxoisoindolin-2-yl)-2,2,4,4-tetramethylcyclobutoxy)benzonitrile], the IC50 is above 1000 nM.
